In one assay the target is T1, hTLR7 (Homo sapiens, UniProt Q9NYK1).
T1 construct: host or cells: HEK-Blue hTLR7 cells (HEK293-derived, own knowledge)
T1 sequence (Q9NYK1 27-1049): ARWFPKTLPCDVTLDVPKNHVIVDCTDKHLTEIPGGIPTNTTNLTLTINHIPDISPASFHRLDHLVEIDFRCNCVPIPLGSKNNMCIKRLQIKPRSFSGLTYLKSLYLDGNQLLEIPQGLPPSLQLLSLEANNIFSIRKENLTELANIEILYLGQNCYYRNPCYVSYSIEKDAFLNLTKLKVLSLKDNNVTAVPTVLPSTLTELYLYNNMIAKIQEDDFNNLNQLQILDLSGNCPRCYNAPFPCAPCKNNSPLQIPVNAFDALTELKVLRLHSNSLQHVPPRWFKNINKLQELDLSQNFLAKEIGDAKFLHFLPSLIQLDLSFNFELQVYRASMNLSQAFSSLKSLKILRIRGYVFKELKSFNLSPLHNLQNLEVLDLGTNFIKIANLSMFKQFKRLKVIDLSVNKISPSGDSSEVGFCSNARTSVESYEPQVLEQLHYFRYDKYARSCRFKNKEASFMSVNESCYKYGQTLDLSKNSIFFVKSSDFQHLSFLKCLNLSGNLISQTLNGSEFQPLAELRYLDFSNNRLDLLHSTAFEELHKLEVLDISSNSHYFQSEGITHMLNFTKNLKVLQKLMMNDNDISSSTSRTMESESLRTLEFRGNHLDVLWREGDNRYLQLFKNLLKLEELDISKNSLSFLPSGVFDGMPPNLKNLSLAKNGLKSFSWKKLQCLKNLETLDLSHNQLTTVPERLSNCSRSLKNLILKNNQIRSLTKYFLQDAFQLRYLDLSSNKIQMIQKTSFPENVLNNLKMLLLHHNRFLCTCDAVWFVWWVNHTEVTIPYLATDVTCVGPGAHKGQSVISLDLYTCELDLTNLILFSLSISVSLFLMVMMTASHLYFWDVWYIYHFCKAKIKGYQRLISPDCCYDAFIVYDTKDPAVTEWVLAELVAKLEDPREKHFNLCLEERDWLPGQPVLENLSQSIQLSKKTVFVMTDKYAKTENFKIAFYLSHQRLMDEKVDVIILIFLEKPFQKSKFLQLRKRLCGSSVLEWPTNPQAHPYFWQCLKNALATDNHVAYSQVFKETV
The assay is described as follows: Human TLR7 Reporter Assay. The settings on record: HEK-Blue hTLR7 cells, 16 hours, normalized to CL097 (6 μM) and DMSO. The class given is cell-based. The method, then: (§1) HEK-Blue™ hTLR7 cells (Invivogen, San Diego, Calif.) were maintained at 37° C./5% CO2/90% relative humidity in Dulbecco's Modified Eagle's Medium with 10% fetal bovine serum, 100 units/mL penicillin, 100 μg/mL streptomycin, 100 μg/mL normocin, 10 μg/mL blasticidin, and 100 μg/mL zeocin. HEK-Blue™ hTLR7 cells were maintained at 10-90% confluence and used before passage 20. For this assay, test compounds were dissolved in DMSO, and 10-point serial 3-fold dilution series in DMSO were prepared in Echo Qualified 384-well Polypropylene Microplates (Labcyte, San Jose, Calif.). Assay plates (384-well flat, clear bottom, black polystyrene TC-treated microtiter plates; Corning, Corning, N.Y.) were prepared by dispensing 150 nL of test compounds, high control (CL097; Invivogen, San Diego, Calif.), and low control (DMSO) by ECHO acoustic dispenser (Labcyte, San Jose Calif.) followed by addition of 5 μL of HEK-Blue™ Detection assay media (Invivogen, San Diego, Calif.). HEK-Blue™ hTLR7 cells in HEK-Blue™ Detection assay media (20,000 cells per well in 45 μL of media) were added to the assay plate and incubated for 16 hours at 37° C./5% CO2/90% relative humidity. For detection, assay plates were removed from the incubator, allowed to cool to ambient temperature, centrifuged at 200×g for 1 minutes, and read with an EnSpire Multimode Plate Reader (Perkin Elmer, Waltham, Mass.) for absorbance at 620 nm. Test compound effects were normalized to the window defined by the controls, CL097 (6 μM), and DMSO. Calculated % effects were fit using a 4-parameter algorithm, and EC50 was reported.
In general terms: Reporter assays use an easily measured gene product as a stand-in for the process of interest.

Another assay has as its target T2, hTLR8 (Homo sapiens, UniProt Q9NR97).
T2 construct: host or cells: HEK-Blue hTLR8 cells (HEK293-derived, own knowledge)
T2 sequence (Q9NR97 27-1041): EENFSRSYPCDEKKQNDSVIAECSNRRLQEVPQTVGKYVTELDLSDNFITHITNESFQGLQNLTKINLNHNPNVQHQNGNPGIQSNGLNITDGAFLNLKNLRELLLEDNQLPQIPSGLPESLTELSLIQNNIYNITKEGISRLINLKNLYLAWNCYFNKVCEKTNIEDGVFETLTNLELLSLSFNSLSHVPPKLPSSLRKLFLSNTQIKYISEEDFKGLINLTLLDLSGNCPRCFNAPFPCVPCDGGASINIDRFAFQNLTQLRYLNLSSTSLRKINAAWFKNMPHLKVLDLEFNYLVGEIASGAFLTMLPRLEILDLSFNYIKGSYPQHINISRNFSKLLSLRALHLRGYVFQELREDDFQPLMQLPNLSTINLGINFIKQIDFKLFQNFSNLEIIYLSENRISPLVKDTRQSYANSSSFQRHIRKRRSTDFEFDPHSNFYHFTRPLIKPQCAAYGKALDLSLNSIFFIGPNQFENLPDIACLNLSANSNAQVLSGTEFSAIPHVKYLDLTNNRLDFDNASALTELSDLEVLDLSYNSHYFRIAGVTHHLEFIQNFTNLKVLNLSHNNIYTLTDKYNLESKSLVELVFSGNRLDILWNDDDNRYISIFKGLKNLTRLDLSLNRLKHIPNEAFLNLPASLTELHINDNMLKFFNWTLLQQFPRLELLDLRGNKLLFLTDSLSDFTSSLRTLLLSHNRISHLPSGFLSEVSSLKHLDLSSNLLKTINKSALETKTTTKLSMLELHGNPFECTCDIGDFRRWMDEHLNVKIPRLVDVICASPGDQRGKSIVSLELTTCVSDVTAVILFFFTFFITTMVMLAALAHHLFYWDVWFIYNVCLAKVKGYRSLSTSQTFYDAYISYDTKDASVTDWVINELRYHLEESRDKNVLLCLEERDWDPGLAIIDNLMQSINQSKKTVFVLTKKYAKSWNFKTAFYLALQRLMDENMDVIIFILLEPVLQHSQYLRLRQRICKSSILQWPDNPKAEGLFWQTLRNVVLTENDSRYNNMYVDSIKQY
The assay is described as follows: Human TLR8 Reporter Assay. The class given is cell-based. To be noted: HEK-Blue hTLR8 cells, 16 hours, normalized to tl8-506 (1 μM) and DMSO. Here is the method: as §1, with “hTLR8” for “hTLR7”, “(tl8-506;” for “(CL097;”, “tl8-506 (1” for “CL097 (6”

For the molecule `CCCCNc1nc(N)nc2cn(Cc3ccccn3)nc12` [Compound 97], the EC50 at hTLR7 was 265 nM; at hTLR8, 2370 nM.

In the case of `CCCCNc1nc(N)nc2cn(Cc3c(OC)cccc3OC)nc12` [Compound 5], the EC50 turned out to be 72.7 nM at hTLR7 and 328 nM on hTLR8.

`CCC[C@@H](C)Nc1nc(N)nc2cn(Cc3c(OC)cccc3OC)nc12` [Compound 113]: the EC50 at hTLR7 came out at 19 nM; at hTLR8 it was 206 nM.

In the case of `CCCCNc1nc(N)nc2cn(Cc3ccc(C(C)N(C)CCC)cc3OC)nc12` (centres unmarked) [Compound 240], the EC50 on hTLR7 worked out at 50.7 nM; at hTLR8, 1090 nM.

For the molecule `CCCC(Nc1nc(N)nc2cn(Cc3c(OC)cccc3OC)nc12)C(F)(F)F` (centres unmarked) [Compound 126], the EC50 on hTLR7 is 707 nM; on hTLR8, over 9980 nM.

On to `CCCCNc1nc(N)nc2cn(Cc3ncc(CN4C(=O)C=CC4=O)cc3OC)nc12` [Compound 110], for which the figures for the EC50 on hTLR7 and on hTLR8 were 553 nM and 3680 nM, respectively.

Consider `C=CCN(C)Cc1cnc(Cn2cc3nc(N)nc(NCCCC)c3n2)c(OC)c1` [Compound 157], for which the EC50 on hTLR7 was 55.9 nM; at hTLR8, 370 nM.

For `CCC(C)CNc1nc(N)nc2cn(Cc3c(OC)cccc3OC)nc12` (centres unmarked) [Compound 56], the EC50 was 369 nM at hTLR7 and over 9980 nM on hTLR8.

As to `CCCCNc1nc(N)nc2cn(Cc3cnccc3OC)nc12` [Compound 101], the EC50 on hTLR7 stood at 153 nM; on hTLR8 it was 1260 nM.

As to `C=CCN(C)Cc1cc(OC)c(Cn2cc3nc(N)nc(N[C@H](C)CCC)c3n2)c(OC)c1` [Compound 187], the EC50 is 20 nM at hTLR7 and 63.3 nM on hTLR8.

Consider `CCCCNc1nc(N)nc2cn(Cc3ccc(CCN)cc3OC)nc12` [Compound 139], for which the EC50 on hTLR7 turned out to be 717 nM; at hTLR8 it was 942 nM.

As to `CCCC(Nc1nc(N)nc2cn(Cc3c(OC)cccc3OC)nc12)C(F)F` (centres unmarked) [Compound 135], the EC50 was 343 nM on hTLR7 and over 9980 nM on hTLR8.

For the molecule `CCCCNc1nc(N)nc2cn(Cc3nc(N4CCNCC4)ccc3OC)nc12` [Compound 159], the EC50 turned out to be 1150 nM at hTLR7 and 9550 nM at hTLR8.

As to `CCCC(Nc1nc(N)nc2cn(Cc3c(OC)cccc3OC)nc12)C(F)F` (centres unmarked) [Compound 136], the EC50 turned out to be 174 nM on hTLR7 and 1340 nM on hTLR8.

For `COc1cccc(OC)c1Cn1cc2nc(N)nc(NCCCC(C)C)c2n1` [Compound 54], the concentration for a half-maximal effect (EC50) at hTLR7 was 496 nM; at hTLR8, over 29900 nM.

In the case of `CCCCNc1nc(N)nc2cn(Cc3ccc(N)cc3OC)nc12` [Compound 166], the EC50 on hTLR7 was determined as 93 nM; at hTLR8, 632 nM.

Regarding `CCCCNc1nc(N)nc2cn(Cc3c(OC)cc(N4C(=O)C=CC4=O)cc3OC)nc12` [Compound 98], the EC50 on hTLR7 was 414 nM; on hTLR8, over 9980 nM.

Consider `CCCCNc1nc(N)nc2cn(Cc3cc(CN4CCN(C(=O)C5CCC(CN6C(=O)C=CC6=O)CC5)CC4)ccc3OC)nc12` (centres unmarked) [Compound 71], for which the EC50 on hTLR7 was 267 nM; on hTLR8 it was 3040 nM.

On to `CCCCNc1nc(N)nc2cn(Cc3ccc(C4CCNC4=O)cc3)nc12` (centres unmarked) [Compound 200], for which the EC50 on hTLR7 was determined as 185 nM; at hTLR8 it was 4900 nM.

Consider `CCCCNc1nc(N)nc2cn(Cc3c(C)cccc3OC)nc12` [Compound 39], for which the EC50 on hTLR7 was 239 nM; at hTLR8, 748 nM.

Regarding `CCCCNc1nc(N)nc2cn(Cc3ccc(C(N)CN)cc3OC)nc12` (centres unmarked) [Compound 227], the EC50 came to 10700 nM on hTLR7 and 10800 nM on hTLR8.

As to `CCCCNc1nc(N)nc2cn(Cc3nnc(C)o3)nc12` [Compound 172], the EC50 on hTLR7 is 2790 nM; at hTLR8 it was 3990 nM.

Turning to `CCC[C@@H](CO)Nc1nc(N)nc2cn(Cc3c(OC)cc(CN)cc3OC)nc12` [Compound 152], the results for the EC50 at hTLR7 and on hTLR8 were 185 nM and 122 nM, respectively.

As for `CCCCNc1nc(N)nc2cn(Cc3ccc(CN(C)C)o3)nc12` [Compound 186], the EC50 on hTLR7 was found to be 190 nM; at hTLR8, 278 nM.

Regarding `CCCCNc1nc(N)nc2cn(Cc3c(OC)cc(CN4C(=O)C=CC4=O)cc3OC)nc12` [Compound 103], the EC50 at hTLR7 is 97.9 nM; on hTLR8, 422 nM.

As to `CCC[C@H](C)Nc1nc(N)nc2cn(Cc3c(OC)cc(Br)cc3OC)nc12` [Compound 184], the results for the 50% effective concentration (EC50) at hTLR7 and at hTLR8 were 103 nM and 728 nM, respectively.

`CCCCNc1nc(N)nc2cn(Cc3c(OC)ccc(CNC(=O)C4CCC(CN5C(=O)C=CC5=O)CC4)c3OC)nc12` (centres unmarked) [Compound 81] displayed a 50% effective concentration (EC50) at hTLR7 of over 29900 nM.

For orientation: EC50 means the concentration at which the effect is half-maximal.

These data come from patent US20230219962A1, “PYRAZOLO[4,3-d]PYRIMIDINE DERIVATIVES AND METHODS OF USE THEREOF FOR THE TREATMENT OF CELLULAR PROLIFERATIVE DISORDERS” (Merck Sharp & Dohme LLC, priority 2020, published 2023).
